Assay results: the NIST ThermoML archive (doi:10.1016/j.jct.2015.09.031)

Assay: molar heat capacity at constant pressure
Conditions: Liquid, Flow calorimetry

CCCCCCC(=O)OCC [ethyl heptanoate]
Conditions	molar heat capacity at constant pressure [J/K/mol]
305.4 K, 100 kPa	318.3
305.4 K, 4040 kPa	317.7
305.4 K, 8190 kPa	317.3
305.4 K, 12090 kPa	316.8
305.5 K, 16070 kPa	316.4
315.7 K, 100 kPa	322.5
315.8 K, 4190 kPa	322
315.9 K, 8150 kPa	321.6
315.9 K, 12260 kPa	320.5
316 K, 16160 kPa	319.6
326.2 K, 16030 kPa	323.6
326.5 K, 100 kPa	326.8
326.5 K, 4140 kPa	325.9
326.6 K, 8170 kPa	325.2
326.6 K, 12110 kPa	324.3
335.3 K, 100 kPa	330.3
335.3 K, 4060 kPa	330.1
335.4 K, 8050 kPa	328.6
335.4 K, 12030 kPa	327.6
335.5 K, 16070 kPa	326.9
345.1 K, 100 kPa	334.2
345.2 K, 4070 kPa	333.5
345.6 K, 8230 kPa	332.5
345.7 K, 12160 kPa	332.2
345.7 K, 16230 kPa	330.5
354.2 K, 100 kPa	337.8
354.2 K, 4120 kPa	337.3
354.3 K, 8010 kPa	336.5
354.4 K, 12390 kPa	335.6
354.5 K, 16250 kPa	334.5
364.9 K, 100 kPa	342.1
365.3 K, 3870 kPa	341.3
365.6 K, 8320 kPa	340.3
365.7 K, 12160 kPa	339.5
365.8 K, 15950 kPa	338.3
374.8 K, 100 kPa	346.1
375 K, 3980 kPa	345.5
375.5 K, 8020 kPa	344
375.7 K, 12070 kPa	342.6
375.9 K, 16040 kPa	341.4
384 K, 100 kPa	349.8
385 K, 4020 kPa	349.1
385.4 K, 8040 kPa	347.1
385.5 K, 11880 kPa	346.1
385.7 K, 15890 kPa	345.6

CCOC(=O)/C=C/c1ccccc1 [ethyl trans-3-phenylpropenoate]
Conditions	molar heat capacity at constant pressure [J/K/mol]
306.7 K, 100 kPa	299.7
306.7 K, 3970 kPa	297.7
306.8 K, 7840 kPa	297.2
306.9 K, 11640 kPa	295.5
307.1 K, 15780 kPa	294.4
315.8 K, 100 kPa	302.2
315.8 K, 4120 kPa	301.9
315.9 K, 8120 kPa	300.4
316 K, 11870 kPa	299.4
316.1 K, 15790 kPa	297.4
325.2 K, 100 kPa	307.1
325.5 K, 3970 kPa	304.6
325.6 K, 8000 kPa	303
325.8 K, 11720 kPa	301.8
325.8 K, 16030 kPa	301
334.6 K, 100 kPa	311.1
334.8 K, 3970 kPa	309.5
334.9 K, 8070 kPa	308
335 K, 11750 kPa	306.6
335.1 K, 16080 kPa	303.6
345.1 K, 100 kPa	315.3
345.2 K, 3910 kPa	313.4
345.3 K, 7970 kPa	312
345.4 K, 11840 kPa	310.1
345.6 K, 15760 kPa	308.2
355.3 K, 11990 kPa	313.5
355.5 K, 16020 kPa	312.1
355.6 K, 100 kPa	320.2
355.7 K, 3930 kPa	316.6
355.8 K, 7990 kPa	315.4
366 K, 100 kPa	324.5
366.3 K, 4210 kPa	321.3
366.5 K, 8030 kPa	319.6
366.6 K, 12140 kPa	318.6
366.9 K, 16090 kPa	316.8
375.6 K, 100 kPa	328.3
375.8 K, 4120 kPa	326
375.9 K, 8030 kPa	323.8
376.2 K, 12180 kPa	321.6
376.4 K, 16170 kPa	320.4
385.6 K, 100 kPa	332.5
385.9 K, 4170 kPa	330.4
386.1 K, 8090 kPa	329.1
386.3 K, 12160 kPa	327.2
386.5 K, 16040 kPa	325.7
